Data reported in the Biogen ADME set (Fang et al. 2023).
In brackets after ≈: the same amount, converted by molar mass.

Settings: for aqueous solubility: pH 6.8

Row | Compound | MDR1-MDCK efflux ratio | intrinsic clearance, human liver microsomes [mL/min/kg] | intrinsic clearance, rat liver microsomes [mL/min/kg] | aqueous solubility [µg/mL]
1 | CCOc1ccc(CC(=O)NCCn2cccnc2=O)cc1 | 18 | ≤ 4.74 | 11.1 | 68.5 (≈ 227 µM)
2 | COc1ccc2c(c1)CC[C@@H]1[C@@H]2CC[C@]2(C)[C@@H](NCCCCCCN3C(=O)C=CC3=O)CC[C@@H]12 | – | 6.09 | 38.7 | –
3 | CN(C(=O)OC(C)(C)C)c1ccc2ccccc2n1 | 0.472 | – | – | 0.28 (≈ 1.08 µM)
4 | C[C@@H]1CN(Cc2ccccc2)C[C@H]1c1nc2c(cnn2C2CCOCC2)c(=O)[nH]1 | 14.3 | 36.3 | 321 | –
5 | N#Cc1ccccc1N1CCC(N)CC1 | 0.562 | 22.1 | 2210 | 54.7 (≈ 272 µM)
6 | CCc1nc(CNc2ccc(C#N)nc2)cs1 | 0.556 | ≤ 4.74 | 109 | –
7 | Cc1ccccc1CNC(=O)c1ccc(-n2ccnc2)nc1 | 0.867 | ≤ 4.74 | 35.3 | 43.6 (≈ 149 µM)
8 | COc1ccc(-c2[nH]c3ncccc3c2CN(C)CCOc2ccccc2OC)cc1 | 3.88 | – | – | 0.3 (≈ 0.719 µM)
9 | O=C1NC2(CCCCC2)C(=O)N1Cc1csc(-c2ccccc2)n1 | 1.15 | 23.7 | 862 | –
10 | CN(Cc1cccc(C#N)c1)c1cnc2ccccc2n1 | 0.442 | 75.3 | 477 | 11.8 (≈ 43.2 µM)
11 | O=C(CN1CCc2ccccc21)N1CCNC1=O | 0.72 | ≤ 4.74 | 16.2 | 27.5 (≈ 112 µM)
12 | CN(C(=O)c1cncc(F)c1)c1cccc2ncccc12 | 2.74 | 22.2 | 134 | 61.8 (≈ 220 µM)
13 | O=C(Nc1ccc2[nH]ncc2c1)[C@H]1CCCNC1 | 0.38 | 14.5 | 343 | –
14 | CCCc1cc(O)nc(SCC(=O)N2CCN(C)CC2)n1 | 23.9 | ≤ 4.74 | ≤ 10.7 | –
15 | O=C(c1ccc(O)nc1)N1CCN(c2ncccn2)CC1 | 7 | ≤ 4.74 | ≤ 10.7 | 43.1 (≈ 151 µM)
16 | O=C(Nc1nc2ccccc2[nH]1)C1CC1c1ccccc1 (configuration not stated) | – | – | – | 1.1 (≈ 3.97 µM)
17 | N#Cc1cc(F)c(N2CCN(CCO)CC2)c(F)c1 | 0.524 | ≤ 4.74 | ≤ 10.7 | 41.3 (≈ 154 µM)
18 | O=C(NCc1cccs1)c1cccnc1 | 0.62 | ≤ 4.74 | ≤ 10.7 | –
19 | Cc1nnc(NC(=O)c2ccccc2-c2ccc(C(F)(F)F)cc2)s1 | 1.45 | 12.1 | 28.3 | 1.35 (≈ 3.72 µM)
20 | CCOC1CCN(C(=O)Cn2c(=O)[nH]c3ccccc32)CC1 | 16.9 | ≤ 4.74 | 20.2 | 47.3 (≈ 156 µM)
21 | COc1cc(N2CCN(C)CC2)ccc1Nc1ncc2c(n1)N(C)c1ccccc1C(=O)N2 | 45 | 14.2 | 131 | 61.7 (≈ 138 µM)

Row | Compound | MDR1-MDCK efflux ratio | intrinsic clearance, human liver microsomes [mL/min/kg] | intrinsic clearance, rat liver microsomes [mL/min/kg] | aqueous solubility [µg/mL]
22 | Cc1cccc(NC(=O)c2cccc3ncccc23)c1 | 0.471 | 22.2 | 155 | 4.85 (≈ 18.5 µM)
23 | Cn1c(=O)n(-c2ccc(C(C)(C)C#N)cc2)c2c3cc(-c4cnc5ccccc5c4)ccc3ncc21 | – | 67.3 | 91.3 | –
24 | COc1cc(CNc2nnn[nH]2)cc(Br)c1OCc1ccc(Cl)cc1 | 4.03 | 10.5 | 74.5 | 1.88 (≈ 4.43 µM)
25 | O=C(NCc1cccc(O)c1)Nc1ccccc1F | – | ≤ 4.74 | 58.9 | 36.4 (≈ 140 µM)
26 | Cc1[nH]ncc1-c1nn2c(Cc3ccccc3Cl)nnc2s1 | – | – | – | 4.18 (≈ 12.6 µM)
27 | CCc1cnc(C)nc1-c1ccc(-c2ccn[nH]2)cc1 | 0.85 | ≤ 4.74 | 75 | 20.7 (≈ 78.5 µM)
28 | Cc1cc(NC(=O)[C@H](C)N(C)C)c2ccccc2n1 | 0.813 | 9.63 | 109 | –
29 | c1ccc(C2(CNc3nc4ccccc4o3)CCOCC2)cc1 | – | 129 | 3400 | –
30 | CN(C(=O)c1cc2ccc(C(C)(C)C)cc2[nH]1)C1(C#N)CCC1 | 0.492 | – | – | 0.22 (≈ 0.711 µM)
31 | Cc1cccc(OC[C@@]2(O)CN(C[C@]3(O)CC[C@@H](C(C)(C)C)CC3)CC[C@@H]2O)c1 | 1.33 | 234 | 1790 | –
32 | O=C(NNc1ccccc1)c1ccncc1 | 0.738 | – | – | –
33 | CCC(C)(C)c1ccc(Oc2ccc(NC(=O)CSc3cccc[n+]3[O-])cc2)cc1 | 2.2 | – | – | 0.45 (≈ 1.06 µM)
34 | CCc1cc(=O)[nH]c(SCCN2CCCCC2)n1 | 3.43 | ≤ 4.74 | 441 | –
35 | CCc1noc(-c2ccc(C)c(N)c2)n1 | – | 209 | 196 | –
36 | OCc1nnc(SCCSC2CCCCC2)n1C1CC1 | 1.96 | 29 | 728 | –
37 | CC(c1ccccc1)N1CC(C(=O)N2CCC(n3c(=O)[nH]c4ccccc43)CC2)CC1=O (configuration not stated) | – | 32.1 | 454 | 71.7 (≈ 166 µM)
38 | O=C(O)c1ccc(=O)n(CCc2c[nH]c3ccccc23)c1 | 2.39 | ≤ 4.74 | ≤ 10.7 | 42.4 (≈ 150 µM)
39 | Fc1cc(Br)ccc1CNCc1ccccn1 | 12 | 26.5 | 445 | –
40 | Cc1ccc(NC(=O)c2ccn(C(C)C)n2)cc1N1C(=O)CCC1=O | – | ≤ 4.74 | 19.2 | –
41 | NCCOc1cccc(CC(=O)N2CCC(F)(F)CC2)c1 | 19.4 | ≤ 4.74 | ≤ 10.7 | –
42 | O=S(=O)(c1ccccc1Cl)N1CCCc2cnc(N3CCOCC3)nc21 | 0.697 | – | – | 1 (≈ 2.53 µM)

Row | Compound | MDR1-MDCK efflux ratio | intrinsic clearance, human liver microsomes [mL/min/kg] | intrinsic clearance, rat liver microsomes [mL/min/kg] | aqueous solubility [µg/mL]
43 | OCCC1(CNc2ncc(Br)cn2)CC1 | 0.674 | 8.65 | 81.9 | –
44 | O=C(Nc1nnc(SCc2ccc(F)cc2)s1)C1CCC1 | 0.689 | 52 | 1650 | –
45 | CC(C)c1cc(C(=O)Nc2ncccc2Cl)no1 | – | 88.3 | 65.1 | –
46 | Cn1c(-c2ccccc2)cnc1NCc1ccccc1 | 0.501 | 506 | 3360 | 27.7 (≈ 105 µM)
47 | COc1ccc(C)cc1S(=O)(=O)NCCC(=O)Nc1ccccc1C | 16.9 | 92 | 2150 | –
48 | Cc1c[nH]c(C(=O)NCC2(N3CCCCC3)CCCC2)n1 | 20.3 | 7.62 | 191 | –
49 | CC(C)(C)c1cc(C(=O)CSc2nncn2-c2ccccc2)cc(C(C)(C)C)c1O | – | 15.9 | 46.6 | –
50 | CCN1CCC(Oc2ncnc3c2c(C)c(C)n3C2CCCCC2)CC1 | – | 31.7 | 725 | –
51 | c1ccc2c(c1)nnn2Cc1ccc2c(c1)OCO2 | 0.581 | – | – | 0.96 (≈ 3.79 µM)
52 | C[C@H]1NC(=O)N(CCc2nc(C(F)(F)F)cs2)C1=O | 1.6 | 5.83 | 24.8 | –
53 | CC(C)c1nc2c(n1C)CCN(c1ncnc3ccccc13)C2 | 4.31 | 34.9 | 402 | 53.5 (≈ 174 µM)
54 | NC(=O)Cn1nnc(-c2ccccc2)n1 | – | – | – | 11 (≈ 54.1 µM)
55 | C[C@@H](C(=O)N1CCCC1)N1CCC(n2c(=O)[nH]c3ccccc32)CC1 | 162 | ≤ 4.74 | 64.5 | 40.6 (≈ 119 µM)
56 | COc1ccccc1-c1nn(-c2ccccc2)cc1CO | 0.418 | 42.1 | 374 | 19.7 (≈ 70.4 µM)
57 | Cc1c(C(=O)NCCc2cc3nc(-c4ccco4)ccn3n2)cnn1C | – | 29 | 173 | –
58 | Cc1cccc(NC(=O)c2noc3c2CCCC3)n1 | – | 197 | 1070 | 17.1 (≈ 66.3 µM)
59 | Nc1nc2c3ccccc3oc2c2ccccc12 | 0.236 | – | – | 0.25 (≈ 1.07 µM)
60 | CSCC(=O)Nc1nc(-c2ccc(C3CCCCC3)cc2)cs1 | 0.695 | – | – | 0.37 (≈ 1.07 µM)
61 | CSc1ccc(-c2ccc3n(c2=O)C[C@@H]2CNC[C@H]3C2)cc1 | 1.42 | 5.01 | 19.3 | 51.2 (≈ 164 µM)
62 | O=C(Nc1cccc(-c2cnco2)c1)C1(c2cccc(F)c2)CCOCC1 | 2.37 | 65.8 | 257 | 42.3 (≈ 115 µM)
